Source: patent US10774092B2 (SALK INSTITUTE FOR BIOLOGICAL STUDIES, priority 2014, dated 2020)
Where a name gives a salt, the structure may show the parent alone.

Each compound was assayed against ULK1 (assay: ULK1 inhibition assay (Table 1)). Conditions: * = tested as a mixture of regioisomers.
Type: biochemical

| Structure (SMILES) | IC50 |
| --- | --- |
| FC(F)(F)c1cnc(Nc2ccc3c(c2)CCNC3)nc1NC1CC1 [Example 309, N4-cyclopropyl-N2-(1,2,3,4-tetrahydroisoquinolin-6-yl)-5-(trifluoromethyl)pyrimidine-2,4-diamine.HCl] | < 200 nM |
| O=C1CCc2cc(Nc3ncc(C(F)(F)F)c(Oc4ccccc4)n3)ccc2N1 [Example 300a, 6-((4-phenoxy-5-(trifluoromethyl)pyrimidin-2-yl)amino)-3,4-dihydroquinolin-2(1H)-one] | > 2000 nM |
| O=[N+]([O-])c1cnc(NC2CC2)nc1NC1CC1 [Example 291b, N2,N4-dicyclopropyl-5-nitropyrimidine-2,4-diamine] | > 2000 nM |
| COc1cc(Nc2ncc(Br)c(Oc3ccccc3NC(C)=O)n2)cc(OC)c1OC [Example 254a, N-(2-((5-bromo-2-((3,4,5-trimethoxyphenyl)amino)pyrimidin-4-yl)oxy)phenyl)acetamide] | < 200 nM |
| COc1cc(Nc2ncc(Br)c(Oc3ccccc3C(=O)N(C)C)n2)cc(OC)c1OC [Example 245, 2-((5-bromo-2-((3,4,5-trimethoxyphenyl)amino)pyrimidin-4-yl)oxy)-N,N-dimethylbenzamide] | < 200 nM |
| CNC(=O)c1cccc(OC)c1Oc1nc(Nc2cc(OC)c(OC)c(OC)c2)ncc1Br [Example 252, 2-((5-bromo-2-((3,4,5-trimethoxyphenyl)amino)pyrimidin-4-yl)oxy)-3-methoxy-N-methylbenzamide] | < 200 nM |
| FC(F)(F)c1cnc(Nc2ccon2)nc1NC1CC1 [Example 214a, N4-cyclopropyl-N2-(isoxazol-3-yl)-5-(trifluoromethyl)pyrimidine-2,4-diamine] | 200 to 2000 nM |
| CNC(=O)c1cccc(Oc2nc(Nc3cc(OC)c(OC)c(OC)c3)ncc2Br)c1 [Example 242, 3-((5-bromo-2-((3,4,5-trimethoxyphenyl)amino)pyrimidin-4-yl)oxy)-N-methylbenzamide] | 200 to 2000 nM |
| FC(F)(F)c1cnc(Nc2ccc(Nc3ncc(C(F)(F)F)c(NC4CC4)n3)cc2)nc1NC1CC1 [Example 304b, N2,N2′-(1,4-phenylene)bis(N4-cyclopropyl-5-(trifluoromethyl)pyrimidine-2,4-diamine)] | > 2000 nM |

Each compound was assayed against ULK1 (Homo sapiens, UniProt O75385) (assay: ULK1 inhibition assay (Table 1)). Conditions: * = tested as a mixture of regioisomers.
Type: biochemical

Sequence of ULK1 (Homo sapiens, UniProt O75385) (O75385 whole entry, looked up): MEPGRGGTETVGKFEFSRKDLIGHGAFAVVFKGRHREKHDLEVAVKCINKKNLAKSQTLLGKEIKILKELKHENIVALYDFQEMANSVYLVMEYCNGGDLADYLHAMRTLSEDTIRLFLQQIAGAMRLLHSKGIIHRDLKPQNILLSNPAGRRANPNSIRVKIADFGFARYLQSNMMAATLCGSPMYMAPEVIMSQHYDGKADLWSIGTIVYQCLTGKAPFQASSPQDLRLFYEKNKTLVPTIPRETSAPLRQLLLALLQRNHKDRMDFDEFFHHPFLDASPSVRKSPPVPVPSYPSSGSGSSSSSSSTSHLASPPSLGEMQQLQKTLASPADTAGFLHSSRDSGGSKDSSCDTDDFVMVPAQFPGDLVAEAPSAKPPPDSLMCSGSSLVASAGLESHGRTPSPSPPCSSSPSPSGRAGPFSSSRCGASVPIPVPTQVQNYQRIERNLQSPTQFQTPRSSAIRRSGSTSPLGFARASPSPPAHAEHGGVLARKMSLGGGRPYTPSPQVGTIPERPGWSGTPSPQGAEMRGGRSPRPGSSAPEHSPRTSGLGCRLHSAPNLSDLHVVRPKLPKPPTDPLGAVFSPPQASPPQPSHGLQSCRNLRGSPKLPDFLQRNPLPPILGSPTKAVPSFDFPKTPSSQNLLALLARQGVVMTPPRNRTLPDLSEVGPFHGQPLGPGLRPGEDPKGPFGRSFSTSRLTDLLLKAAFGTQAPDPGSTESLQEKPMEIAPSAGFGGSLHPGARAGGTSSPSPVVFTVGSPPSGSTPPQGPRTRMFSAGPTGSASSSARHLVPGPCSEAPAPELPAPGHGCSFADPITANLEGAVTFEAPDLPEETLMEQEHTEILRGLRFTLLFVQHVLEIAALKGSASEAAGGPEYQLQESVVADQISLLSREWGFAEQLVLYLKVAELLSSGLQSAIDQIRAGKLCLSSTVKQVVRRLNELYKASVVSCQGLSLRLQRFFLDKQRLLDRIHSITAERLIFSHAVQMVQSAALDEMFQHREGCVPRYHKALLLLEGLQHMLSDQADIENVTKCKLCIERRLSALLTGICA

| Structure (SMILES) | IC50 |
| --- | --- |
| O=C1CCCc2cc(Nc3ncc(C(F)(F)F)c(NC4CC4)n3)ccc21 [Example 301, 6-((4-(cyclopropylamino)-5-(trifluoromethyl)pyrimidin-2-yl)amino)-3,4-dihydronaphthalen-1(2H)-one] | < 200 nM |
| FC(F)(F)c1cnc(Nc2ccc3ncoc3c2)nc1NC1CC1 [Example 208a, N2-(benzo[d]oxazol-6-yl)-N4-cyclopropyl-5-(trifluoromethyl)pyrimidine-2,4-diamine] | < 200 nM |
| CN(c1nc(Nc2ccc3c(c2)CCC(=O)N3)ncc1C(F)(F)F)C1CC1 [Example 202, 6-((4-(cyclopropyl(methyl)amino)-5-(trifluoromethyl)pyrimidin-2-yl)amino)-3,4-dihydroquinolin-2(1H)-one] | < 200 nM |
| FC(F)(F)c1cnc(Nc2ccc3c(c2)OCCCO3)nc1NC1CC1 [Example 190, N4-cyclopropyl-N2-(3,4-dihydro-2H-benzo[b][1,4]dioxepin-7-yl)-5-(trifluoromethyl)pyrimidine-2,4-diamine] | < 200 nM |
| COC(=O)CNc1nc(Nc2ccc3c(c2)CCC(=O)N3)ncc1C(F)(F)F [Example 218, Methyl (2-((2-oxo-1,2,3,4-tetrahydroquinolin-6-yl)amino)-5-(trifluoromethyl)pyrimidin-4-yl)glycinate] | > 2000 nM |
| FC(F)(F)c1cnc(NCc2cccc3ccccc23)nc1NC1CC1 [Example 262, N4-cyclopropyl-N2-(naphthalen-1-ylmethyl)-5-(trifluoromethyl)pyrimidine-2,4-diamine] | > 2000 nM |
| CNC(=O)c1ccccc1Oc1nc(Nc2cc(OC)c(OC)c(OC)c2)ncc1Cl [Example 234a, 2-((5-chloro-2-((3,4,5-trimethoxyphenyl)amino)pyrimidin-4-yl)oxy)-N-methylbenzamide] | > 2000 nM |
| FC(F)(F)c1cnc(Nc2ccc3c(c2)OCO3)nc1NC1CC1 [Example 213, N2-(benzo[d][1,3]dioxol-5-yl)-N4-cyclopropyl-5-(trifluoromethyl)pyrimidine-2,4-diamine] | < 200 nM |
| C[C@@H]1COCCN1c1nc(Nc2ccc3c(c2)CCC(=O)N3)ncc1C(F)(F)F [Example 247, (R)-6-((4-(3-methylmorpholino)-5-(trifluoromethyl)pyrimidin-2-yl)amino)-3,4-dihydroquinolin-2(1H)-one] | < 200 nM |
| O=C1CCc2cc(Nc3ncc(C(F)(F)F)c(NCC4CC4)n3)ccc2N1 [Example 216, 6-((4-((cyclopropylmethyl)amino)-5-(trifluoromethyl)pyrimidin-2-yl)amino)-3,4-dihydroquinolin-2(1H)-one] | < 200 nM |
| FC(F)(F)c1cnc(Nc2ccnnc2)nc1NC1CC1 [Example 221a, N4-cyclopropyl-N2-(pyridazin-4-yl)-5-(trifluoromethyl)pyrimidine-2,4-diamine] | < 200 nM |
| O=C1CCc2cc(Nc3ncc(C(F)(F)F)c(NC4COC4)n3)ccc2N1 [Example 193, 6-((4-(oxetan-3-ylamino)-5-(trifluoromethyl)pyrimidin-2-yl)amino)-3,4-dihydroquinolin-2(1H)-one] | > 2000 nM |
| CC(C)(C)OC(=O)NCCCNc1nc(Nc2ccc3c(c2)CCC(=O)N3)ncc1C(F)(F)F [Example 310, Tert-butyl (3-((2-((2-oxo-1,2,3,4-tetrahydroquinolin-6-yl)amino)-5-(trifluoromethyl)pyrimidin-4-yl)amino)propyl)carbamate] | < 200 nM |
| COC(=O)Nc1ccccc1Oc1nc(Nc2cc(OC)c(OC)c(OC)c2)ncc1Br [Example 296, Methyl (2-((5-bromo-2-((3,4,5-trimethoxyphenyl)amino)pyrimidin-4-yl)oxy)phenyl)carbamate] | < 200 nM |
| O=C1CCc2cc(Nc3ncc(C(F)(F)F)c(Nc4ccc5[nH]ncc5c4)n3)ccc2N1 [Example 185, 6-((4-((1H-indazol-5-yl)amino)-5-(trifluoromethyl)pyrimidin-2-yl)amino)-3,4-dihydroquinolin-2(1H)-one] | < 200 nM |
| COc1cc(Nc2ncc(Br)c(NC3CC3)n2)cc(OC)c1OC [Example 186, 5-bromo-N4-cyclopropyl-N2-(3,4,5-trimethoxyphenyl)pyrimidine-2,4-diamine] | < 200 nM |

| Structure (SMILES) | IC50 |
| --- | --- |
| FC(F)(F)c1cnc(Nc2ccc3nn[nH]c3c2)nc1NC1CC1 [Example 188, N2-(1H-benzo[d][1,2,3]triazol-6-yl)-N4-cyclopropyl-5-(trifluoromethyl)pyrimidine-2,4-diamine] | < 200 nM |
| Nc1nc(Nc2ccc3c(c2)CCC(=O)N3)ncc1C(F)(F)F [Example 209, 6-((4-amino-5-(trifluoromethyl)pyrimidin-2-yl)amino)-3,4-dihydroquinolin-2(1H)-one] | 200 to 2000 nM |
| O=C1CCc2cc(Nc3ncc(C(F)(F)F)c(N(CCO)CCO)n3)ccc2N1 [Example 212a, 6-((4-(bis(2-hydroxyethyl)amino)-5-(trifluoromethyl)pyrimidin-2-yl)amino)-3,4-dihydroquinolin-2(1H)-one] | > 2000 nM |
| O=c1[nH]c2ccc(Nc3ncc(Br)c(NC4CC4)n3)cc2[nH]1 [Example 236, 5-((5-bromo-4-(cyclopropylamino)pyrimidin-2-yl)amino)-1,3-dihydro-2H-benzo[d]imidazol-2-one] | < 200 nM |
| FC(F)(F)c1cnc(Nc2ccc3[nH]ccc3c2)nc1NC1CC1 [Example 206, N4-cyclopropyl-N2-(1H-indol-5-yl)-5-(trifluoromethyl) pyrimidine-2,4-diamine] | < 200 nM |
| FC1(F)Oc2ccc(Nc3ncc(C(F)(F)F)c(NC4CC4)n3)cc2O1 [Example 258, N4-cyclopropyl-N2-(2,2-difluorobenzo[d][1,3]dioxol-5-yl)-5-(trifluoromethyl)pyrimidine-2,4-diamine] | > 2000 nM |
| FC(F)(F)c1cnc(Nc2ccc3ncccc3c2)nc1NC1CC1 [Example 264, N4-cyclopropyl-N2-(quinolin-6-yl)-5-(trifluoromethyl) pyrimidine-2,4-diamine] | < 200 nM |
| O=c1[nH]c2ncc(Nc3nc(Nc4ccc5c(c4)OCCO5)ncc3Br)cc2o1 [Example 192, 6-((5-bromo-2-((2,3-dihydrobenzo[b][1,4]dioxin-6-yl)amino)pyrimidin-4-yl)amino)oxazolo[4,5-b]pyridin-2(3H)-one] | < 200 nM |
| Nc1nc(Nc2cnc3[nH]ccc3c2)ncc1C(F)(F)F [Example 217, N2-(1H-pyrrolo[2,3-b]pyridin-5-yl)-5-(trifluoromethyl) pyrimidine-2,4-diamine] | > 2000 nM |
| FC(F)(F)c1cnc(N2CCCC2c2cccnc2)nc1NC1CC1 (stereo not shown) [Example 228, N-cyclopropyl-2-(2-(pyridin-3-yl)pyrrolidin-1-yl)-5-(trifluoromethyl)pyrimidin-4-amine] | > 2000 nM |
| CCC(=O)c1ccccc1Oc1nc(Nc2cc(OC)c(OC)c(OC)c2)ncc1Br [Example 260, 1-(2-((5-bromo-2-((3,4,5-trimethoxyphenyl)amino)pyrimidin-4-yl)oxy)phenyl)propan-1-one] | < 200 nM |
| COC(=O)[C@@H]1CCCN1c1nc(Nc2ccc3c(c2)CCC(=O)N3)ncc1C(F)(F)F [Example 227, Methyl (2-((2-oxo-1,2,3,4-tetrahydroquinolin-6-yl)amino)-5-(trifluoromethyl)pyrimidin-4-yl)-L-prolinate] | 200 to 2000 nM |
| FC(F)(F)c1cnc(Nc2cnc3ccccc3c2)nc1NC1CC1 [Example 275, N4-cyclopropyl-N2-(quinolin-3-yl)-5-(trifluoromethyl) pyrimidine-2,4-diamine] | < 200 nM |
| CC1CN1c1nc(Nc2ccc3c(c2)CCC(=O)N3)ncc1C(F)(F)F (stereo not shown) [Example 183a, 6-((4-(2-methylaziridin-1-yl)-5-(trifluoromethyl)pyrimidin-2-yl)amino)-3,4-dihydroquinolin-2(1H)-one] | > 2000 nM |
| O=C1CCc2cc(Nc3ncc(C(=O)O)c(NC4CC4)n3)ccc2N1 [Example 286, 4-(cyclopropylamino)-2-((2-oxo-1,2,3,4-tetrahydroquinolin-6-yl)amino)pyrimidine-5-carboxylic Acid] | > 2000 nM |
